Values of other authors as cited in PMC5666773, “Human Immunodeficiency Virus Proteins Mimic Human T Cell Receptors Inducing Cross-Reactive Antibodies” (International Journal of Molecular Sciences, 2017).

Molecular target: naturally circulating anti-insulin
Conditions: healthy human beings and cats; no clinical effect; read-out: naturally circulating anti-insulin binding

insulin
Kd: ~10 µM
